Experiments:
Btk = Btk (Homo sapiens (Human), UniProt Q06187); assay: Btk enzyme inhibitory activity (Z'-LYTE Kinase Assay Kit-Tyr1 peptide); type: biochemical; details: Tyr-1 peptide 4 μM, Btk 5 nM, ATP 36 μM, 1 hour at 30° C.
Method: The Btk enzyme inhibitory activity was measured, based on the protocol provided by the manufacturer, using Btk (Invitrogen Corporation) and the Z′-LYTE® Kinase Assay Kit-Tyr1 peptide (Invitrogen Corporation), which contained the following reagents: Tyr-1 peptide, Thy-1 phosphopeptide, 5× kinase buffer, ATP, development reagent B, development buffer, and stop reagent.
5 μL/well of a solution of the test compound diluted with dimethyl sulfoxide (DMSO), or DMSO, and 10 μL/well of the substrate/enzyme mixture solution were dispensed to a 96-well assay plate and a reaction was carried out for 20 minutes at 30° C. […] The enzymatic reaction was then stopped by adding 10 μL of the stop solution.
The percent inhibition (%) by the test compound was calculated using the following equation. percent inhibition (%) of phosphorylation=1−{(AC−AX)/(AC−AB)}×100 [E1]

Lck = Lck (Homo sapiens (Human), UniProt P06239); assay: Lck inhibitory activity, selectivity for Btk (Z'-LYTE kinase assay); type: biochemical; details: ratio of the IC50 values of the individual kinases
Method: (§1) The inhibitory activity for other kinases (for example, Lck, Fyn, and LynA (all from Invitrogen Corporation) was measured in the same manner as described above using the particular kinase in place of the Btk.

Fyn = Fyn (Homo sapiens (Human), UniProt P06241); assay: Fyn inhibitory activity, selectivity for Btk (Z'-LYTE kinase assay); type: biochemical; details: ratio of the IC50 values of the individual kinases
Method: as §1

LynA = LynA (Homo sapiens (Human), UniProt P07948); assay: LynA inhibitory activity, selectivity for Btk (Z'-LYTE kinase assay); type: biochemical; details: ratio of the IC50 values of the individual kinases
Method: as §1

Human CYP2C8 = Human CYP2C8 (Homo sapiens (Human), UniProt P10632); assay: Inhibitory action on human CYP2C8; type: in vitro ADME
Method: (§2) Measurement of the Inhibitory Activity on Drug-Metabolizing Enzymes (Inhibitory Action on Human CYP2C8 and Human CYP2C19)
The reaction was carried out in a 96-well plate. […] 100 μL of this reaction mixture and 50 μL of the test compound prepared as described above and the positive control solution prepared as described above were dispensed into each well and pre-incubation was carried out at 10 minutes for 37° C. The reaction was started by the addition of 50 μL NADPH solution (final concentration=1 mmol/L) and incubation was carried out for 30 minutes at 37° C.

Human CYP2C19 = Human CYP2C19 (Homo sapiens (Human), UniProt P33261); assay: Inhibitory action on human CYP2C19; type: in vitro ADME
Method: as §2
The reaction was carried out in a 96-well plate. The positive control substances (CYP2C8: ketoconazole, CYP2C19: tranylcypromine) were adjusted (CYP2C8: 0.6 and 6 mmol/L, CYP2C19: 0.9 and 9 mmol/L) with DMSO to concentrations that were 300 times the final concentration, and solutions were prepared (CYP2C8: 8 and 80 μmol/L, CYP2C19: 12 and 120 μmol/L) by 75× dilution with purified water that contained 2.7% acetonitrile. The test compounds were adjusted to […] with DMSO and were adjusted to 4 and 40 μmol/L by 75× dilution with purified water that contained 2.7% acetonitrile. A reaction mixture was then prepared (the numerical values are final concentrations) by the addition of potassium phosphate buffer (pH 7.4), magnesium chloride ([…]), substrate (CYP2C8: dibenzylfluorescein 1 μmol/L, CYP2C19: 3-cyano-7-ethoxycoumarin 25 μmol/L), and E. coli-expressed liver microsome CYP2C8 (Cypex, 10 pmol/L) and CYP2C19 (Cypex, 3 pmol/L). 100 μL of this reaction mixture and 50 μL of the test compound prepared as described above and the positive control solution prepared as described above were dispensed into each well and pre-incubation was carried out at 10 minutes for 37° C. The reaction was started by the addition of 50 μL NADPH solution (final concentration=1 mmol/L) and incubation was carried out for 30 minutes at 37° C. The fluorescence intensity was measured (CYP2C8: excitation wavelength=485 nm, fluorescence wavelength=538 nm; CYP2C19: excitation wavelength=409 nm, fluorescence wavelength=460 nm) immediately after the addition of the NADPH and after incubation for 30 minutes.

Human liver cells = assay: Ability to reduce the mitochondrial membrane potential in cultured human hepatoma cells (JC-1); type: cell-based; details: JC-1, exposure for 24 hours, read-out: Ability to lower the mitochondrial membrane potential (IC50 (μM))
Excerpt: Measurement of the Cytotoxicity and Ability to Reduce the Mitochondrial Membrane Potential in Cultured Human Hepatoma Cells
Tissue that maintains an aerobic equilibrium, e.g., the kidneys and heart, and tissue that is exposed to high drug concentrations and carries out drug metabolism, e.g., the liver, are known to be sensitive to mitochondrial dysfunction (Drug Discovery Today, 12 (17-18), 777-785, 2007). The reduction or extinction of the mitochondrial membrane potential by a drug is caused by the direct inhibition of the electron transport system, decoupling of electron transport from ATP synthase, or the opening of a mitochondrial membrane permeability transition pore. As a consequence, measurement of the mitochondrial membrane potential of liver cells can provide a parameter for hepatotoxicity.
Human liver cells were seeded into a collagen-coated 96-well plate at a cell density of 30,000 cells/well and incubation was carried out overnight in an incubator at 37° C. in 5% CO2-95% air. The cultured cells were stained for 1 hour with 5,5′,6,6′-tetrahydro-1,1′,3,3′-tetramethyl-benzamidazolocarbocyanine iodide (JC-1) followed by treatment with the test compound. The test compound was dissolved in DMSO and then diluted with the liquid culture medium Hepatocyte Culture Medium (HCM) and added to the cells. The test compound treatment concentrations were 0, 6.25, 12.5, 25, 50, 100, 200, and 400 μmol/L. After exposure to the test compound for 24 hours, measurement was performed with a SpectraMax plate reader (Molecular Devices, LLC) at an excitation wavelength of 485 nm and a fluorescence wavelength of 538 nm and an excitation wavelength of 544 nm and a fluorescence wavelength of 590 nm. The membrane potential was determined by the ratio between the 544 nm/590 nm measurement value and the 485 nm/538 nm measurement value. After this, the ATP concentration in the cells was measured using a Celltiter Glo luminescent assay kit (Promega Corporation) in order to evaluate the cell toxicity of the test compound. The cells were lysed by the assay buffer provided with the measurement kit and the concentration of the ATP released from the cells was measured using the luciferin-luciferase enzyme activity as the index. The emission was measured using a SpectraMax plate reader. […] The ability to lower the mitochondrial membrane potential of the test compounds and the cytotoxicity of the test compounds are given in Table 3 below.

[1] = Stability in the rat liver microsome; details: 0.5 mg/mL microsomes, NADPH, 15 minutes at 37° C.
Method: (§3) Evaluation of the Stability in the Rat and Human Liver Microsome
(§4) A 0.25 mmol/L solution was prepared by diluting the test compound (10 mmol/L DMSO solution, 5 μL) with an aqueous 50% acetonitrile solution (195 μL).
(§5) 20 μL was collected immediately after the start and the reaction was stopped by the addition to 180 μL of acetonitrile that contained an internal standard (warfarin). 20 μL of this solution was stirred with 180 μL of an aqueous 50% acetonitrile solution on a filter plate for protein depletion followed by suction filtration, and the filtrate was used as the standard sample.
(§6) The previously indicated reaction solution was incubated for 15 minutes at 37° C., and 20 μL was then added to 180 μL cold acetonitrile (contained the internal standard warfarin) to stop the reaction. 20 μL of this was stirred with 180 μL of an aqueous 50% acetonitrile solution on a filter plate for protein depletion followed by suction filtration, and the filtrate was used as the standard sample.

[2] = Stability in the human liver microsome; details: 0.5 mg/mL microsomes, NADPH, 15 minutes at 37° C.
Method: as §3, §4, §5, §6

Fyn, sequence (P06241 whole entry): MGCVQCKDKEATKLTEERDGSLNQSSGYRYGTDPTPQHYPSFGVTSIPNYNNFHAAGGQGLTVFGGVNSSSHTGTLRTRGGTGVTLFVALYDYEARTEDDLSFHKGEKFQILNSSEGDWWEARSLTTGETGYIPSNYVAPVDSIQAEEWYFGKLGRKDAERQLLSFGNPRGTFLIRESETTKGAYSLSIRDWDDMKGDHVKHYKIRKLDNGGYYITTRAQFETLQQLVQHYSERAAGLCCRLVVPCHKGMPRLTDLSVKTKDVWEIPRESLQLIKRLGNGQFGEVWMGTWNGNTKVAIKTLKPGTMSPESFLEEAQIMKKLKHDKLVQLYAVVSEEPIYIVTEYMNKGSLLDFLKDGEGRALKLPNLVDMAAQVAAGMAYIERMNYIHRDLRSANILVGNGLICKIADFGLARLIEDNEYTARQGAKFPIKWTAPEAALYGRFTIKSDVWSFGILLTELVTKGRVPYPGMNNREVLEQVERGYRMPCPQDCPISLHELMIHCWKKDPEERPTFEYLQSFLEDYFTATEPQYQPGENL
Human CYP2C19, sequence (P33261 whole entry): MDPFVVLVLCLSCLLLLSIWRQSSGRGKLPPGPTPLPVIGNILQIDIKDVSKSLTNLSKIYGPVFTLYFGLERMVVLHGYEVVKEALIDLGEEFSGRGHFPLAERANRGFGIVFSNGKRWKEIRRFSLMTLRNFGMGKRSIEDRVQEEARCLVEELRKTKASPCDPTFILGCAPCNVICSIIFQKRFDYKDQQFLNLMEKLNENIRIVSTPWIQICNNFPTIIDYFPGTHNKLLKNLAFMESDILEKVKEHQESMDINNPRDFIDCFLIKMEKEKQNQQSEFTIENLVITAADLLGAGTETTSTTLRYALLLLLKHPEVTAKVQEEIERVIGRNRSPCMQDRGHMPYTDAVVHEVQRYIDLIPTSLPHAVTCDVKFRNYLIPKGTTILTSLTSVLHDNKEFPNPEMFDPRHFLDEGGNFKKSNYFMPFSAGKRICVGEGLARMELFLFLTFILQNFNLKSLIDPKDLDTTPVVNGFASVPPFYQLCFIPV
Lck, sequence (P06239 whole entry): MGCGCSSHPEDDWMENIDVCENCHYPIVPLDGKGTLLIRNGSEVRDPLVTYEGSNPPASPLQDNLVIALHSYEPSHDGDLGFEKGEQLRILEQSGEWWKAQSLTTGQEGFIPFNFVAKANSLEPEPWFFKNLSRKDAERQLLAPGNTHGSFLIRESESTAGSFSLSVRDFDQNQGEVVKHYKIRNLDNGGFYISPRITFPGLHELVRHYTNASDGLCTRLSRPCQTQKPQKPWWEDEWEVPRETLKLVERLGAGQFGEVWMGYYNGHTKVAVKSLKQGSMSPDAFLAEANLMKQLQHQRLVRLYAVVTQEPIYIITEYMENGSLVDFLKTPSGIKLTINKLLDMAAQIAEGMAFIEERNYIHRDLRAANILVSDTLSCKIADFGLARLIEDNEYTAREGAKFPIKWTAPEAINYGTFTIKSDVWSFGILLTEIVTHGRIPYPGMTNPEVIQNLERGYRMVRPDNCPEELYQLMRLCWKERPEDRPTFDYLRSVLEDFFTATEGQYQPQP
Human CYP2C8, sequence (P10632 whole entry): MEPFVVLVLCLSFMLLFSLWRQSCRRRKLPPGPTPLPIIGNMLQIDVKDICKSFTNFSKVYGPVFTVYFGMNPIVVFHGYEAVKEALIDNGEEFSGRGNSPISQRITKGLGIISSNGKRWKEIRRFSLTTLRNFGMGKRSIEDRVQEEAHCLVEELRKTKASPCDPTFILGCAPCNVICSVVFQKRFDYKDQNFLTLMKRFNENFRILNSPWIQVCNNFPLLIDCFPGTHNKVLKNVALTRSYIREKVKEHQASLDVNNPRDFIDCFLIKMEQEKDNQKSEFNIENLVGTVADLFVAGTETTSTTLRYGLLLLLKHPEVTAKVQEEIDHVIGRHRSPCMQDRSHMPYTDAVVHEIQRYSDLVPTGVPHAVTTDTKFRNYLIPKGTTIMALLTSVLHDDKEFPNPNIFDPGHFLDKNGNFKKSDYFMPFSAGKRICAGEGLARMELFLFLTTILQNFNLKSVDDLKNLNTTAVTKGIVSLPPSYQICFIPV
Btk, sequence (Q06187 whole entry): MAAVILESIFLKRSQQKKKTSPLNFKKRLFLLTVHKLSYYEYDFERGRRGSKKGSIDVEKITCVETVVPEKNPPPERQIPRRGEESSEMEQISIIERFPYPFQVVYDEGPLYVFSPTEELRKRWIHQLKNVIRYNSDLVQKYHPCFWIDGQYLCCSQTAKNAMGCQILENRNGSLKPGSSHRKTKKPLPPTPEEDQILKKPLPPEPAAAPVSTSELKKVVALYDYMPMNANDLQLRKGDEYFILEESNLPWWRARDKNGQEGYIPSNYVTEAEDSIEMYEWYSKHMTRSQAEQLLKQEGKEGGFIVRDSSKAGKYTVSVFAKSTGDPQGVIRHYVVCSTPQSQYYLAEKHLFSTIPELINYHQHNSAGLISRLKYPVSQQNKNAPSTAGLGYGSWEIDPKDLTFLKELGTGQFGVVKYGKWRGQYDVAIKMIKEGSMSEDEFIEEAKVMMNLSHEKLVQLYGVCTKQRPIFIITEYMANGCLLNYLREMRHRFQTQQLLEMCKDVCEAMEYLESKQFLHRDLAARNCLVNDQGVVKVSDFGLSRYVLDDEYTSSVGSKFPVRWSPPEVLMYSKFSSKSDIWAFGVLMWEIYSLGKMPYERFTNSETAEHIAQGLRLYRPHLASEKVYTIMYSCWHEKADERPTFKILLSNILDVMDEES
LynA, sequence (P07948 whole entry): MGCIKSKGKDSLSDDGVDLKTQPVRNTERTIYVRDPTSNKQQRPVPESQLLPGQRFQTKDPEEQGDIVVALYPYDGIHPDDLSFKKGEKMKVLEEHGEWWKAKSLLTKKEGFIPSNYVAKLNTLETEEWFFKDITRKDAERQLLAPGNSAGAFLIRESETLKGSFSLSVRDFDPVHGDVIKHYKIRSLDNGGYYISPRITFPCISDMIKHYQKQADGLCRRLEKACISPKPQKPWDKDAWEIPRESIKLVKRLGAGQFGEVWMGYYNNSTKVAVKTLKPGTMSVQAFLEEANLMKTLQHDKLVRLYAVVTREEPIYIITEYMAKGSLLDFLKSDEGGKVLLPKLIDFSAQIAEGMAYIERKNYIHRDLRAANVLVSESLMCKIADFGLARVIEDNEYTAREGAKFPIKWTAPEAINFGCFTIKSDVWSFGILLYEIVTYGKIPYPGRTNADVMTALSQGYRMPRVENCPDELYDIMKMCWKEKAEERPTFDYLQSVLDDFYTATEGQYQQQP

SMILES: C=CC(=O)N1CC(n2c(=O)n(-c3ccc(Oc4ccccc4)cc3)c3c(N)ncnc32)C1 [Example 8, 9-(1-acryloyl-3-azetidinyl)-6-amino-7-(4-phenoxyphenyl)-7,9-dihydro-8H-purin-8-one]
- IC50 (Btk): 4 nM
- Lck[IC50]/Btk[IC50] (Lck): 80
- Fyn[IC50]/Btk[IC50] (Fyn): 453
- LynA[IC50]/Btk[IC50] (LynA): 459
- IC50 (Human CYP2C8): > 10 µM
- IC50 (Human CYP2C19): > 10 µM
- IC50 (Human liver cells): 324 µM
- Residual ratio (%) in the rat liver microsome [1]: 100%
- Residual ratio (%) in the human liver microsome [2]: 87.0%

— patent US9879013B2, “Purinone derivative” (ONO PHARMACEUTICAL CO., LTD., priority 2010, dated 2018)
